Legend:
Acetyl-CoA carboxylase 1 = Acetyl-CoA carboxylase 1 (Homo sapiens, UniProt Q13085); experiment: Inhibition of recombinant human ACC1 assessed as reduction in conversion of acetyl-CoA to malonyl-CoA incubated for 1 to 3 hrs with substrate by MALDI-TOF-MS analysis
Cytochrome P450 2C9 = Cytochrome P450 2C9 (Homo sapiens, UniProt P11712); experiment: Inhibition of CYP2C9 (unknown origin); format: ADME
Cytochrome P450 2C19 = Cytochrome P450 2C19 (Homo sapiens, UniProt P33261); experiment: Inhibition of CYP2C19 (unknown origin); format: ADME
Cytochrome P450 2D6 = Cytochrome P450 2D6 (Homo sapiens, UniProt P10635); experiment: Inhibition of CYP2D6 (unknown origin); format: ADME
Cytochrome P450 3A4 = Cytochrome P450 3A4 (Homo sapiens, UniProt P08684); experiment: Inhibition of CYP3A4 (unknown origin); format: ADME
Cytochrome P450 1A2 = biological target: T1, Cytochrome P450 1A2 (Homo sapiens, UniProt P05177); experiment: Inhibition of CYP1A2 (unknown origin); format: ADME
T1 sequence (P05177 whole entry): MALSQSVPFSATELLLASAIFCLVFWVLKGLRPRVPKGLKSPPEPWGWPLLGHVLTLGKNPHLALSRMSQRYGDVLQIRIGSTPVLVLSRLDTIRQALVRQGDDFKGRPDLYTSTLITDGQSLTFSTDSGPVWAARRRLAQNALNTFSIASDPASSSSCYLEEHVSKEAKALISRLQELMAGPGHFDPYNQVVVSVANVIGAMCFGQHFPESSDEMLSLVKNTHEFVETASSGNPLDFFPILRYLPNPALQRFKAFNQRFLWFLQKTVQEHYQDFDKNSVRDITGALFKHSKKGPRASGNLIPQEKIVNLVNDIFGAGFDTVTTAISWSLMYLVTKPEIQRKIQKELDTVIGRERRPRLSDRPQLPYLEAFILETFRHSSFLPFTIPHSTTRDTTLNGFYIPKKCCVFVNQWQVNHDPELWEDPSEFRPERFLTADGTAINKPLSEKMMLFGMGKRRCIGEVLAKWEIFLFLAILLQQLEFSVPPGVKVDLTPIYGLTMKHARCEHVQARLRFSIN

Acetyl-CoA carboxylase 2 = Acetyl-CoA carboxylase 2 (Homo sapiens, UniProt O00763); experiment: Inhibition of recombinant human ACC2 assessed as reduction in conversion of acetyl-CoA to malonyl-CoA incubated for 1 to 3 hrs with substrate by MALDI-TOF-MS analysis
Homo sapiens = organism: Homo sapiens; experiment: Selectivity ratio of IC50 for recombinant human ACC1 to IC50 for recombinant human ACC2
[1] = Metabolic stability in human liver microsomes assessed as parent compound remaining after 30 mins; format: ADME, microsome; details: read-out: Stability
[2] = Metabolic stability in rat liver microsomes assessed as parent compound remaining after 30 mins; format: ADME, microsome; details: read-out: Stability
Rattus norvegicus [3] = experiment: Toxicity in rat assessed as histopathological lesions in heart at 50 mg/kg/day, po administered for 4 consecutive days; format: organism-based; details: in vivo
Mus musculus [4] = experiment: Suppression of malonyl-CoA levels in C57BL/6 mouse skeletal muscle at 2.5 mg/kg, po measured at 6 hrs post dose by LC-MS analysis relative to control; format: functional
[5] = Plasma concentration in C57BL/6 mouse at 2.5 mg/kg, po measured at 6 hrs post dose by LC-MS analysis; format: ADME, organism-based
[6] = Plasma concentration in C57BL/6 mouse at 1 mg/kg, po measured at 6 hrs post dose by LC-MS analysis; format: ADME, organism-based
[7] = Cmax in rat at 50 mg/kg/day, po administered for 4 consecutive days measured on day 1; format: ADME, organism-based; design: dose 50 mg/kg/day, route oral; details: in vivo
Mus musculus [8] = experiment: Suppression of malonyl-CoA levels in C57BL/6 mouse skeletal muscle at 1 mg/kg, po measured at 6 hrs post dose by LC-MS analysis relative to control; format: functional
[9] = AUC in C57BL/6 mouse at 2.5 mg/kg, po; format: ADME, organism-based; details: in vivo
[10] = Total clearance in C57BL/6 mouse at 0.2 mg/kg, iv; format: ADME, organism-based; details: in vivo
[11] = AUC (0 to 24 hrs) in rat at 50 mg/kg/day, po administered for 4 consecutive days measured on day 1; format: ADME, organism-based; design: dose 50 mg/kg/day, time < 24 hr, route oral; details: in vivo
Rattus norvegicus [12] = experiment: Toxicity in rat assessed as abnormal clinical signs at 50 mg/kg/day, po administered for 4 consecutive days; format: organism-based; details: in vivo
[13] = Cmax in C57BL/6 mouse at 2.5 mg/kg, po; format: ADME, organism-based; design: dose 2.5 mg/kg, route oral; details: in vivo
[14] = Oral bioavailability in C57BL/6 mouse at 2.5 mg/kg; format: ADME, organism-based; details: in vivo

Sequence of Cytochrome P450 2D6 (P10635 whole entry): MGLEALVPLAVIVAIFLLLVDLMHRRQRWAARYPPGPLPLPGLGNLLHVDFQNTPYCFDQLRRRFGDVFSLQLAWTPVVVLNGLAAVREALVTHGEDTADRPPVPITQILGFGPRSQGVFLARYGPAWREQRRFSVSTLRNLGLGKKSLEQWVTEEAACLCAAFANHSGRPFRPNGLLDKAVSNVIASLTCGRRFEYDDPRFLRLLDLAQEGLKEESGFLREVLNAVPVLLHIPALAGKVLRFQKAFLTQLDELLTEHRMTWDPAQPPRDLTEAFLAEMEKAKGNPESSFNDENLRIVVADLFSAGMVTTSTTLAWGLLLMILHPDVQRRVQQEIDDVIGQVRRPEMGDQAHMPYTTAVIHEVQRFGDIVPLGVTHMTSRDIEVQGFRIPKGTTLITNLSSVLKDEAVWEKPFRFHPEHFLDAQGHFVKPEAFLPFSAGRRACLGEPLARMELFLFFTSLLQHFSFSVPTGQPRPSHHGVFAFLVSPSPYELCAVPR
Sequence of Cytochrome P450 2C19 (P33261 whole entry): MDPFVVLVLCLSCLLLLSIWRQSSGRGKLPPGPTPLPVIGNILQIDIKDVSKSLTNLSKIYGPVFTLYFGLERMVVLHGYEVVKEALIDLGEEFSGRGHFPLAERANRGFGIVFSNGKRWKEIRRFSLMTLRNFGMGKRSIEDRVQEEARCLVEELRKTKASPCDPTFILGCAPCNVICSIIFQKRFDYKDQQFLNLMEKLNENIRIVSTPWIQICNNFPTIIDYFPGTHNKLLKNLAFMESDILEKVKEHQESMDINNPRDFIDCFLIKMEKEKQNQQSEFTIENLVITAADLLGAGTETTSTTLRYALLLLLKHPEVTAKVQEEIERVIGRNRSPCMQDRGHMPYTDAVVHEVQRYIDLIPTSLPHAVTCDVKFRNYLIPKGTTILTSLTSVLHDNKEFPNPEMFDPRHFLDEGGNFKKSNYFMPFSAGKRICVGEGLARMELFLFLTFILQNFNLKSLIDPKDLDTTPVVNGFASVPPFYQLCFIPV
Sequence of Cytochrome P450 3A4 (P08684 whole entry): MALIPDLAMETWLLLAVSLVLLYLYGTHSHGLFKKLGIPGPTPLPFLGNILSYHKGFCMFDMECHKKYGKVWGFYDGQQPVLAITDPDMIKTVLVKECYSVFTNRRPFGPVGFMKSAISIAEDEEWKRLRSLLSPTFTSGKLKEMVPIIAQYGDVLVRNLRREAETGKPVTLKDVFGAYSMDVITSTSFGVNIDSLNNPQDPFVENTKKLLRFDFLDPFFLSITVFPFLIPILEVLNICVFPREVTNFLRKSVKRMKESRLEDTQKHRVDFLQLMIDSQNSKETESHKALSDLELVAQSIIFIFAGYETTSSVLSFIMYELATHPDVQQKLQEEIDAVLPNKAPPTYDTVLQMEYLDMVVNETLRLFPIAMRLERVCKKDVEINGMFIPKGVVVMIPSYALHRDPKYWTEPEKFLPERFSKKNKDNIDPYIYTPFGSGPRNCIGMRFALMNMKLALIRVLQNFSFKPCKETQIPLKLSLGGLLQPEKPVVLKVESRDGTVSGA
Sequence of Cytochrome P450 2C9 (P11712 whole entry): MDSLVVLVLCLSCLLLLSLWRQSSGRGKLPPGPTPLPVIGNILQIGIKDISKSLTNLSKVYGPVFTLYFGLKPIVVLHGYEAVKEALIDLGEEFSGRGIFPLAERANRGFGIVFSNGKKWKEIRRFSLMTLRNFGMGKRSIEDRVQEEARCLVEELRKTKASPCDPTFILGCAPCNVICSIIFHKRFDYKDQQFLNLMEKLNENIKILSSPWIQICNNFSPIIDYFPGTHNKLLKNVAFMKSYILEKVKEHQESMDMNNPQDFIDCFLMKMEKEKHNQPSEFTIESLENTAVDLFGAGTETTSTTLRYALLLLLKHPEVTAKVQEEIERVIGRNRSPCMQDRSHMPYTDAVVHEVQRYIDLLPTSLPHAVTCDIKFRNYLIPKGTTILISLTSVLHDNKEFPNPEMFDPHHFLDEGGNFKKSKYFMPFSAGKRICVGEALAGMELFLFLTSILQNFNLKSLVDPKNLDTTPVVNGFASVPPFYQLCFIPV
Sequence of Acetyl-CoA carboxylase 2 (O00763 whole entry): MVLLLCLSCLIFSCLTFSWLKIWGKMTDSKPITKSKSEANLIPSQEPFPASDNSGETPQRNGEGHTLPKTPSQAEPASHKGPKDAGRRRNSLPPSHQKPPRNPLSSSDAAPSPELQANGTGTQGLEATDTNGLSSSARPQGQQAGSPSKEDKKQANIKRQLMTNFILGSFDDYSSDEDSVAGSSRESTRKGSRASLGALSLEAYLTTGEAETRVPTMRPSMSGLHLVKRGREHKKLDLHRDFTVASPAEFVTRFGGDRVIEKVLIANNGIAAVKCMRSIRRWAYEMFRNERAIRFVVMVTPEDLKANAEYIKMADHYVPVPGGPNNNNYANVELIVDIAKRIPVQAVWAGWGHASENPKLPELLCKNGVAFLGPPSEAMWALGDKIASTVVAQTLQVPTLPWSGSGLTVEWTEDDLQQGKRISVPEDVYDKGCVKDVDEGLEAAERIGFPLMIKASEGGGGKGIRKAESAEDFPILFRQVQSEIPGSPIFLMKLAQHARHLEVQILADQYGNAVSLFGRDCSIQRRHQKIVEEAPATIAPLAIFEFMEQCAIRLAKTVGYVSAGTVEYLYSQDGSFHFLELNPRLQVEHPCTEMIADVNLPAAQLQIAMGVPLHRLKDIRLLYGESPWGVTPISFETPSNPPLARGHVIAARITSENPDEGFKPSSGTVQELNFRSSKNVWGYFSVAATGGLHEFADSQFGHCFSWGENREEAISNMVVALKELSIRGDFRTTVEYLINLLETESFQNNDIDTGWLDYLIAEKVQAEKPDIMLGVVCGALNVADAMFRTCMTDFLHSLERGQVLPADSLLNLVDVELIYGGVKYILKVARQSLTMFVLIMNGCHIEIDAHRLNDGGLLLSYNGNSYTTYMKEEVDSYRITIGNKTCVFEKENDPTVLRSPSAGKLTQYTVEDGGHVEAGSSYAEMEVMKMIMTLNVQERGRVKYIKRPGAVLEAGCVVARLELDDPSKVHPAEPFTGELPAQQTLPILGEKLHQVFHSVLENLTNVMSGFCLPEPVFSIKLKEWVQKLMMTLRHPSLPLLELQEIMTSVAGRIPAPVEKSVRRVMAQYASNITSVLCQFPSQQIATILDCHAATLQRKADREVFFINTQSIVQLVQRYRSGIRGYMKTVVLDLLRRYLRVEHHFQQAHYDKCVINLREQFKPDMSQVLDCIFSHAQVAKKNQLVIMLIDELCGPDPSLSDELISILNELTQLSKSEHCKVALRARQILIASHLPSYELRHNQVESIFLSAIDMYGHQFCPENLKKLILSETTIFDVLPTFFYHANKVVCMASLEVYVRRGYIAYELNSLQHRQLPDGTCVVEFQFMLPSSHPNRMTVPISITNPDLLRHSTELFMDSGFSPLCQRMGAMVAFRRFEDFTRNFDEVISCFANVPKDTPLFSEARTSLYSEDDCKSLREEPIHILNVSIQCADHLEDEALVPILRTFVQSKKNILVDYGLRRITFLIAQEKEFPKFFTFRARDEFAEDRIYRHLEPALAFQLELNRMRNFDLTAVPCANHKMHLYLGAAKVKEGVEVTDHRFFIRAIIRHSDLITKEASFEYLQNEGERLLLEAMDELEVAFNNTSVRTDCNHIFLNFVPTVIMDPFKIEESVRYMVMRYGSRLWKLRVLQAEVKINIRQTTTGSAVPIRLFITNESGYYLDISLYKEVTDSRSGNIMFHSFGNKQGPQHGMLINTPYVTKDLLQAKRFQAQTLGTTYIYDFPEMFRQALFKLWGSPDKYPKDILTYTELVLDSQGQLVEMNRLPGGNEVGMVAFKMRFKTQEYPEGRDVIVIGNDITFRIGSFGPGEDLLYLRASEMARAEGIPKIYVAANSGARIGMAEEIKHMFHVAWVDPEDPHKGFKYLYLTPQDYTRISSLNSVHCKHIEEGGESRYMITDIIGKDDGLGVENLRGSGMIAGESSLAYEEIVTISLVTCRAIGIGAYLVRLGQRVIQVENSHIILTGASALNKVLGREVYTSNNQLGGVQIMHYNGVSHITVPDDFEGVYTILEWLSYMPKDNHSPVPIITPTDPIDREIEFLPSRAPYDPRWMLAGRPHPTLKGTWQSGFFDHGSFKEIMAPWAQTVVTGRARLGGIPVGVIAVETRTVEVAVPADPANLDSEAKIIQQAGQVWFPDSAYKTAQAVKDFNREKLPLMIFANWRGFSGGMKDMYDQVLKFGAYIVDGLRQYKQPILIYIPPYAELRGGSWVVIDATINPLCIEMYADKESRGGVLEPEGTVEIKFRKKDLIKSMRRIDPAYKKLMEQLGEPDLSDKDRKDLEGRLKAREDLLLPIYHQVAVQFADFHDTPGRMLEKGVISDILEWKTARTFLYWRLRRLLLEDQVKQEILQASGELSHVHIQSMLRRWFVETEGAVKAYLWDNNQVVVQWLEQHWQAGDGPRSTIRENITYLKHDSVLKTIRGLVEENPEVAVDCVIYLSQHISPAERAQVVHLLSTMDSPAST

SMILES | IC50 (Acetyl-CoA carboxylase 1) | IC50 (Cytochrome P450 2C9) | IC50 (Cytochrome P450 2C19) | IC50 (Cytochrome P450 2D6) | IC50 (Cytochrome P450 3A4) | IC50 (Cytochrome P450 1A2) | IC50 (Acetyl-CoA carboxylase 2) | Ratio IC50 (Homo sapiens) | remaining at 0.5 h [1] | remaining at 0.5 h [2] | other results
CC(=O)N[C@@H](C)/C=C/c1ccc(Oc2ccc(OCC3CC3)cc2Cl)nn1 | > 100 µM | > 20 µM | > 20 µM | > 20 µM | 18 µM | > 20 µM | 0.306 µM | > 327 |  |  | 
CC(=O)N[C@@H](C)/C=C/c1ccc(Oc2ccc(OCC(F)F)cc2Cl)nc1 | > 100 µM | > 20 µM | > 20 µM | > 20 µM | > 20 µM | > 20 µM | 0.084 µM | > 1190 |  |  | 
CC(=O)N[C@@H](C)/C=C/c1ccc(Oc2ccc3nc(C)sc3c2Cl)nc1 | 12.2 µM | > 20 µM | > 20 µM | > 20 µM | > 20 µM | > 20 µM | 0.026 µM | 469 | 87% | 75% | 
CC(=O)N[C@@H](C)/C=C/c1nnc(Oc2ccc(OCC3CC3)cc2Cl)s1 | > 100 µM | 15 µM | > 20 µM | > 20 µM | > 20 µM | > 20 µM | 0.253 µM | > 395 |  |  | 
CCOc1nc2ccc(Oc3ccc(/C=C/[C@H](C)NC(C)=O)cn3)c(Cl)c2s1 | 1.95 µM | 13 µM | 18 µM | > 20 µM | > 20 µM | > 20 µM | 0.0019 µM | 1030 | 91% | 100% | Activity (Rattus norvegicus [3]): Non-Toxic; Activity (Mus musculus [4]): 41%; concentration at 6 h [5]: 2620 ng/mL; concentration at 6 h [6]: 1130 ng/mL; Cmax [7]: 34600 ng/mL; Activity (Mus musculus [8]): 20%; AUC [9]: 99.8 µg·h/mL; clearance [10]: 0.354 mL/min/kg; AUC(0-t) at 24 h [11]: 620 µg·h/mL; Activity (Rattus norvegicus [12]): Non-Toxic; Cmax [13]: 4230 ng/mL; bioavailability [14]: 83.5%
CC(=O)N[C@@H](C)/C=C/c1cnc(Oc2ccc(OCC3CC3)cc2Cl)cn1 | 0.75 µM | > 20 µM | > 20 µM | > 20 µM | > 20 µM | > 20 µM | 0.025 µM | 30 |  |  | 
CC(=O)N[C@@H](C)/C=C/c1cnc(Oc2ccc(OCC3CC3)cc2Cl)n1C | 37.2 µM | 10 µM | > 20 µM | > 20 µM | > 20 µM | > 20 µM |  | 82 |  |  | 
CC(=O)N[C@@H](C)/C=C/c1ccc(Oc2ccc3nc(C(C)C)sc3c2C(F)(F)F)nc1 | 7.45 µM | 14 µM | 18 µM | > 20 µM | 17 µM | > 20 µM | 0.059 µM | 126 | 87% | 83% | 
CC(=O)N[C@@H](C)/C=C/c1ccc(Oc2ccc(OCCF)cc2Cl)nc1 | > 100 µM | > 20 µM | > 20 µM | > 20 µM | > 20 µM | > 20 µM | 0.186 µM | > 537 |  |  | 
CC(=O)N[C@@H](C)/C=C/c1ccc(Oc2cc3sc(C)nc3cc2Cl)nc1 | 52.1 µM | > 20 µM | > 20 µM | > 20 µM | > 20 µM | > 20 µM | 0.473 µM | 110 | 94% | 83% | 
CC(=O)N[C@@H](C)/C=C/c1ccc(Oc2ccc(OCC3CC3)cc2Cl)nc1 | 0.964 µM | 9.5 µM | > 20 µM | > 20 µM | 16 µM | > 20 µM |  | 140 |  |  | 
CC(=O)N[C@@H](C)/C=C/c1cnc(Oc2ccc(OCC3CC3)cc2Cl)nc1 | > 100 µM | > 20 µM | > 20 µM | > 20 µM | > 20 µM | > 20 µM | 0.048 µM | > 2080 |  |  | 
CC(=O)N[C@@H](C)/C=C/c1ccc(Oc2ccc3nc(C(C)(C)O)sc3c2Cl)nc1 | 3.15 µM | 17 µM | > 20 µM | > 20 µM | > 20 µM | > 20 µM | 0.01 µM | 315 | 92% | 96% | 

Now from value to compound, other results behind:

IC50 (Acetyl-CoA carboxylase 1) | IC50 (Cytochrome P450 2C9) | IC50 (Cytochrome P450 2C19) | IC50 (Cytochrome P450 2D6) | IC50 (Cytochrome P450 3A4) | IC50 (Cytochrome P450 1A2) | IC50 (Acetyl-CoA carboxylase 2) | Ratio IC50 (Homo sapiens) | remaining at 0.5 h [1] | remaining at 0.5 h [2] | SMILES | other results
0.303 µM | 13 µM | 18 µM | > 20 µM | 19 µM | > 20 µM | 0.0043 µM | 70 | 83% | 52% | CC(=O)N[C@@H](C)/C=C/c1ccc(Oc2ccc3nc(C(C)C)sc3c2Cl)nc1 | 
0.035 µM | > 20 µM | > 20 µM | > 20 µM | > 20 µM | > 20 µM | 0.0021 µM | 17 | 84% | 51% | CC(=O)N[C@@H](C)/C=C/c1ccc(Oc2ccc3nc(C(C)C)sc3c2F)nc1 | 
1.94 µM | 8.2 µM | 18 µM | > 20 µM | > 20 µM | > 20 µM | 0.031 µM | 63 |  |  | CC(=O)N[C@@H](C)/C=C/c1cnc(Oc2ccc(OCC3CC3)cc2)s1 | 
> 100 µM | 2.7 µM | 6.5 µM | > 20 µM | > 20 µM | > 20 µM | 0.076 µM | > 1320 |  |  | COC(=O)N[C@@H](C)/C=C/c1cnc(Oc2ccc(OC(C)C)cc2)s1 | 
> 100 µM | 8.6 µM | > 20 µM | > 20 µM | > 20 µM | > 20 µM | 0.079 µM | > 1270 |  |  | CCOc1ccc(Oc2ncc(/C=C/[C@H](C)NC(C)=O)s2)cc1 | 
> 100 µM | > 20 µM | > 20 µM | > 20 µM | > 20 µM | > 20 µM | 0.046 µM | > 2170 |  |  | CCOc1ccc(Oc2ccc(/C=C/[C@H](C)NC(C)=O)cn2)c(Cl)c1 | 
53.4 µM | 4.4 µM | > 20 µM | > 20 µM | > 20 µM | > 20 µM | 0.066 µM | 809 |  |  | CC(=O)N[C@@H](C)/C=C/c1cnc(Oc2ccc(OC(C)C)cc2)s1 | 
1.27 µM | 3.5 µM | 14 µM | > 20 µM | > 20 µM | > 20 µM | 0.013 µM | 98 |  |  | CC(=O)N[C@@H](C)/C=C/c1cnc(Oc2ccc(OCC3CC3)cc2Cl)s1 | 
0.858 µM | 14 µM | 11 µM | > 20 µM | > 20 µM | > 20 µM | 0.04 µM | 21 | 88% | 77% | CC(=O)N[C@@H](C)/C=C/c1ccc(Oc2ccc3sc(C(C)C)nc3c2Cl)nc1 | 
